“Also recorded” adds a separate entry of the source.
Columns and labels:
MOLM-13 cells = experiment: Apoptosis induction, caspase-3 and PARP cleavage by Western blot; assay type: cell-based, human; settings: MOLM-13, 10 nM, 24 hours
Protocol: (§1) Cells were lysed in lysis buffer (50 mM Tris, pH 8.0, 150 mM NaCl, 1% Triton X-100, 0.5% sodium deoxycholate, 0.1% SDS, 1 mM sodium orthovanadate, 1 mM PMSF, and 1 mM DTT). Protein lysates were resolved by SDS-PAGE and transferred onto a polyvinylidene difluoride (PVDF) membrane (Millipore, Bedford, MA, USA). The membranes were immunoblotted with appropriate antibodies and detected using the SuperSignal reagent (Pierce, Rockford, IL, USA) followed by exposure to X-ray film.
(§2) As the inhibition of FLT3 signaling results in a loss of growth potential and an induction of apoptosis in FLT3-ITD expressing cells, the effects of BPR1J-340 on cell apoptotic response in FLT3-ITD^+ cells was investigated. The MOLM-13 and MV4;11 cells were treated with BPR1J-340 at different concentrations for 24 hours and analyzed for the induction of apoptosis using active caspase-3 and cleaved PARP (poly-ADP-ribose polymerase) analysis.
(§3) Figure 3 BPR1J-340 induces apoptosis in MOLM-13 and MV4;11 cells. […] MOLM-13 (A) and MV4;11 (B) cells were treated with BPR1J-340 at the indicated concentrations for 24 hours, and the cell lysates were then subjected to Western blot analysis using antibodies against caspase-3 and PARP (poly-ADP-ribose polymerase). (full length caspase-3 (FL-caspase-3), cleavage of caspase-3 (CL-caspase-3), full length poly(ADP-ribose) polymerase (FL-PARP), cleavage of PARP (CL-PARP)).

MV4;11 cells = experiment: as above; assay type: cell-based, human; settings: MV4;11, 10 nM, 24 hours
Protocol: as §1, §2, §3

MOLM-13 tumor xenograft = experiment: Subcutaneous MOLM-13 tumor xenograft in nude mice; assay type: in vivo
Protocol: Male nude mice (Nu-Fox1nu) of eight weeks old were purchased from BioLasco (Ilan, Taiwan). The nude mice (n = 5∼7 per group) were inoculated subcutaneously with MOLM-13 (1×10^6 cells/flank). All human cancer cells were determined to be free of Mycoplasma spp before the inoculation. When tumors size reached 100∼200 mm^3 and a large size of >500 mm^3, the animals were grouped and treated with the BPR1J-340 (5 and 20 mg/kg, i.v.) or vehicle as control once daily for 5 days per week for two or three weeks. Tumor sizes were measured and calculated with the formula of length×width^2/2 after the initiation of the treatments. Tumor size and animal body weight were measured twice a week after the tumor cell inoculation. At the end of the study, animals were euthanized by carbon dioxide inhalation followed by cervical dislocation. The significant difference between the treated and vehicle control were analyzed by using one-way ANOVA and Student-Newman-Keuls test. The level of a statistical significance was set at p<0.05.

FLT3-ITD = FLT3-ITD (Homo sapiens, UniProt P36888); experiment: FLT3 phosphorylation in MV4;11 cells, Western blot; assay type: cell-based; settings: 1 hour
Protocol: as §1
(§4) To address whether BPR1J-340 was able to inhibit the FLT3 signaling pathway in FLT3-driven cells, MV4;11 cells were treated with different concentrations of BPR1J-340 for 1 hour, and the phosphorylation status of FLT3 and STAT5 (Signal Transducer and Activator of Transcription 5), a critical down-stream modulator that plays a major role in FLT3-ITD signal transduction for cell expansion and survival, was examined by Western blot analysis. […] To investigate the difference in sensitivity between FLT3-WT and the activating mutants FLT3-ITD and FLT3-D835Y to BPR1J-340, HEK293T cells engineered to express FLT3-WT or mutants FLT3 (FLT3-ITD, FLT3-D835Y) were analyzed. […]
(§5) Figure 2 BPR1J-340 inhibits FLT3-dependent signaling. […] The phosphorylation status of FLT3 and STAT5 were evaluated by Western blot analysis. […] The FLT3 phosphorylation status in the transfected cells was evaluated by Western blot analysis.

STAT5 phosphorylation = STAT5 phosphorylation in MV4;11 cells, Western blot; assay type: cell-based; settings: Homo sapiens, 1 hour
Protocol: as §1, §4, §5

Aurora B kinase = Aurora B kinase (Homo sapiens, UniProt Q96GD4); experiment: Aurora B kinase inhibition; assay type: biochemical
Protocol: BPR1J-340, a urea-substituted 3-phenyl-1H-5-pyrazolylamine-based compound, was designed through chemical modification of sulfonamide series of derivatives (BPR1J-097 series) by a structure-activity relationship (SAR) study (Fig. 1), [32]. For kinase inhibition specificity screening, BPR1J-340 was tested against 59 protein kinases covering the major oncogenic kinases of human protein kinome. […] In addition, BPR1J-340 inhibited TRKA, which is associated with the growth and metastasis of breast cancers, with an IC50 value of 8 nM. Given the high similarity of the ATP binding pockets of FLT3 and the Aurora kinases, the inhibitory activity toward Aurora A and Aurora B were measured. […] Taken together, BPRJ-340 is a selective kinase inhibitor with in vitro activity against FLT3, VEGFR2, VEGFR3 and TRKA receptor tyrosine kinases.

Aurora B kinase, sequence (Q96GD4 whole entry): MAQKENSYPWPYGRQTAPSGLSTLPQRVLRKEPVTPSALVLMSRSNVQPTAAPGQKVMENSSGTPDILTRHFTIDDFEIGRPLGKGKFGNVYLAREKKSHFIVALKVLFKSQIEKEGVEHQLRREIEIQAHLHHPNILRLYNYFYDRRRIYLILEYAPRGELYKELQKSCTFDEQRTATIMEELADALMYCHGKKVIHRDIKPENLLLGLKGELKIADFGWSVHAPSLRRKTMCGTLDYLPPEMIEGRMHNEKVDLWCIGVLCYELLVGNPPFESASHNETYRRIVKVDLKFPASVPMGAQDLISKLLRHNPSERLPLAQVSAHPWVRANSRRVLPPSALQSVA
FLT3-ITD, sequence (P36888 27-993, change not shown): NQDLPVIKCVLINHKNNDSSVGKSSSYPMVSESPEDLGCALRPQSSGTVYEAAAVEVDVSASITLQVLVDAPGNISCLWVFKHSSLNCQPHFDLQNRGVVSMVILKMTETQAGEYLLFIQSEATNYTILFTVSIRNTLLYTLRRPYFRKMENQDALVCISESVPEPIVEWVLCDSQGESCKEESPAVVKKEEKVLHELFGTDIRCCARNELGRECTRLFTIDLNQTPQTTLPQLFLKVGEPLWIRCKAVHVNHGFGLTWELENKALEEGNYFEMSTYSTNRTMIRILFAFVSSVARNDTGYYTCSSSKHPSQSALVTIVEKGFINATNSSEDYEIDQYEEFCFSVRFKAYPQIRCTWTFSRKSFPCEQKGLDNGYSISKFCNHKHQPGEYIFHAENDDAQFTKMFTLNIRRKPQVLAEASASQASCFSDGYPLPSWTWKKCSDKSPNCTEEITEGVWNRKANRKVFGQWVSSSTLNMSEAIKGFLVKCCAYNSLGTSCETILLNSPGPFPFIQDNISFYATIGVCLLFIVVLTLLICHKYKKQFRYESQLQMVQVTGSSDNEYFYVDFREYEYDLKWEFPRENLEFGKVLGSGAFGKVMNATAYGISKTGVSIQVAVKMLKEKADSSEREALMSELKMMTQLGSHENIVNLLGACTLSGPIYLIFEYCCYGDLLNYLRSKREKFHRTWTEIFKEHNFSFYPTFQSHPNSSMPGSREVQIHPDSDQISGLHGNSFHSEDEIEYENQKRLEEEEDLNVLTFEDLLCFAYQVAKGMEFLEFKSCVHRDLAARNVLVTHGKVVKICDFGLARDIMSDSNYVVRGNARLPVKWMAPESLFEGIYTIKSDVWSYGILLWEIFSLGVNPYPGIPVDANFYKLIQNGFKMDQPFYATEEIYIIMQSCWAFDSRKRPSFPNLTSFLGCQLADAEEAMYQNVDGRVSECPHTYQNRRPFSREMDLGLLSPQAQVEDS

`CCc1cc(NC(=O)NCc2ccc(-c3cc(NC(=O)c4ccc(CN5CCN(C)CC5)cc4)[nH]n3)cc2)no1` [BPR1J-340, N1-(3-4-[([(5-ethyl-3-isoxazolyl)amino]carbonylamino)methyl]phenyl-1H-5-pyrazolyl)-4-[(4-methylpiperazino)methyl]benzamide] was tested, and the “cleavage of caspase-3 and PARP (apoptosis)” value (MOLM-13 cells) was “significant cleavage”, the “cleavage of caspase-3 and PARP (apoptosis)” value (MV4;11 cells) was “significant cleavage” and the CR ratio (MOLM-13 tumor xenograft; 5 mg/kg) was 67%. The tumor response (MOLM-13 tumor xenograft; 5 mg/kg i.v. qd, days 1–5 of each week for 3 weeks, tumors about 200 mm^3) was “complete regression of the tumor in all animals by day 22; also recorded: inhibited”, the “complete regression (CR), animals” value (MOLM-13 tumor xenograft; 5 mg/kg i.v. qd, days 1–5 weekly for 3 weeks, within 31 days of post-treatment observation) was 4 of 6 and the “tumor response, large tumors” value (MOLM-13 tumor xenograft; 20 mg/kg i.v., days 1–5 of each week for 2 weeks, average tumor volume 630 mm^3, 48-day follow up) was “complete and durable tumor regression; also recorded: significantly reversed”. For the same compound, the “body weight, mortality, tolerability” value (MOLM-13 tumor xenograft; nude mice, 5 and 20 mg/kg/day i.v.) was “well-tolerated”, the IC50 (FLT3-ITD) was roughly 1 nM and the IC50 (STAT5 phosphorylation) was roughly 1 nM. For the same compound, the IC50 (Aurora B kinase) was 1340 nM.

Source: PMC3885398, “Evaluation of the Antitumor Effects of BPR1J-340, a Potent and Selective FLT3 Inhibitor, Alone or in Combination with an HDAC Inhibitor, Vorinostat, in AML Cancer” (PLoS ONE, 2014)
